Key:
[1] = biological target: T1, L-lactate dehydrogenase A chain (Homo sapiens, UniProt P00338); assay: Inhibition of human recombinant carboxy-terminal His-tagged LDHA by UV endpoint assay
[2] = biological target: T1, L-lactate dehydrogenase A chain; assay: Inhibition of human recombinant carboxy-terminal His-tagged LDHA by SPR assay
[3] = biological target: L-lactate dehydrogenase B chain (Homo sapiens, UniProt P07195)
Sequence of L-lactate dehydrogenase B chain (P07195 whole entry): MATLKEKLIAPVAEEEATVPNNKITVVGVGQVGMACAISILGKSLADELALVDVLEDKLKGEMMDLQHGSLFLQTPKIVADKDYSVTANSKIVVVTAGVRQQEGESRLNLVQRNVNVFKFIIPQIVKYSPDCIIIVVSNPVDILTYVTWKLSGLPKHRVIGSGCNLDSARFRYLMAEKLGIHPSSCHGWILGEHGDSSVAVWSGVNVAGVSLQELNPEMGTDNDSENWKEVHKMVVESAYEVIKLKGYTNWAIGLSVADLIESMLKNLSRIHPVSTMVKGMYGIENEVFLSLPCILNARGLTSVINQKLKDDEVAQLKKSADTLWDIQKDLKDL
Description: Inhibition of human recombinant carboxy-terminal His-tagged LDHB by UV endpoint assay

Structure (SMILES)	IC50 [1] [µM]	Kd [2] [µM]	IC50 [3] [µM]
O=C1CC(c2ccccc2)CC(O)=C1Sc1ccc(F)cc1F (centres undefined)	> 100	–	–
O=C1CC(c2ccccc2)CC(O)=C1Sc1ccccc1 (centres undefined)	> 100	–	–
O=C1CC(c2ccccc2)CC(O)=C1Sc1ccccc1F (centres undefined)	53	–	–
O=C1CC(c2ccccc2)CC(O)=C1Sc1ccccc1Br (centres undefined)	53	–	–
Cc1ccccc1SC1=C(O)CC(c2ccccc2)CC1=O (centres undefined)	> 100	–	–
O=C1CC(c2ccccc2)CC(O)=C1Sc1ccccc1C(F)(F)F (centres undefined)	> 66	–	–
CCc1ccccc1SC1=C(O)CC(c2ccccc2)CC1=O (centres undefined)	> 100	–	–
O=C1CC(c2ccccc2)CC(O)=C1Sc1ccccc1CO (centres undefined)	36	–	–
O=C1CC(c2ccccc2)CC(O)=C1Sc1ccccc1O (centres undefined)	> 100	–	–
COc1ccccc1SC1=C(O)CC(c2ccccc2)CC1=O (centres undefined)	> 100	–	–
O=C1CC(c2ccccc2)CC(O)=C1Sc1ccccc1C(=O)O (centres undefined)	> 100	–	–
COC(=O)c1ccccc1SC1=C(O)CC(c2ccccc2)CC1=O (centres undefined)	> 100	–	–
NC(=O)c1ccccc1SC1=C(O)CC(c2ccccc2)CC1=O (centres undefined)	> 100	–	–
CS(=O)(=O)c1ccccc1SC1=C(O)CC(c2ccccc2)CC1=O (centres undefined)	> 100	–	–
O=C1CC(c2ccccc2)CC(O)=C1Sc1cccc(F)c1 (centres undefined)	> 100	–	–
O=C1CC(c2ccccc2)CC(O)=C1Sc1cccc(Cl)c1 (centres undefined)	> 100	–	–
O=C1CC(c2ccccc2)CC(O)=C1Sc1cccc(Br)c1 (centres undefined)	> 100	–	–
Cc1cccc(SC2=C(O)CC(c3ccccc3)CC2=O)c1 (centres undefined)	> 100	–	–
O=C1CC(c2ccccc2)CC(O)=C1Sc1cccc(C(F)(F)F)c1 (centres undefined)	> 100	–	–
COc1cccc(SC2=C(O)CC(c3ccccc3)CC2=O)c1 (centres undefined)	> 100	–	–
O=C1CC(c2ccccc2)CC(O)=C1Sc1cccc(OC(F)(F)F)c1 (centres undefined)	> 100	–	–
Nc1cccc(SC2=C(O)CC(c3ccccc3)CC2=O)c1 (centres undefined)	> 100	–	–

Structure (SMILES)	IC50 [1] [µM]	Kd [2] [µM]	IC50 [3] [µM]
NC(=O)c1cccc(SC2=C(O)CC(c3ccccc3)CC2=O)c1 (centres undefined)	> 100	–	–
NS(=O)(=O)c1cccc(SC2=C(O)CC(c3ccccc3)CC2=O)c1 (centres undefined)	> 100	–	–
O=C1CC(c2ccccc2)CC(O)=C1Sc1ccc(F)cc1 (centres undefined)	> 100	–	–
O=C1CC(c2ccccc2)CC(O)=C1Sc1ccc(Cl)cc1 (centres undefined)	> 100	–	–
O=C1CC(c2ccccc2)CC(O)=C1Sc1ccc(Br)cc1 (centres undefined)	> 100	–	–
Cc1ccc(SC2=C(O)CC(c3ccccc3)CC2=O)cc1 (centres undefined)	> 100	–	–
CCc1ccc(SC2=C(O)CC(c3ccccc3)CC2=O)cc1 (centres undefined)	> 100	–	–
O=C1CC(c2ccccc2)CC(O)=C1Sc1ccc(C(F)(F)F)cc1 (centres undefined)	> 100	–	–
O=C1CC(c2ccccc2)CC(O)=C1Sc1ccc(O)cc1 (centres undefined)	> 100	–	–
COc1ccc(SC2=C(O)CC(c3ccccc3)CC2=O)cc1 (centres undefined)	> 100	–	–
O=C1CC(c2ccccc2)CC(O)=C1Sc1ccc(C(=O)O)cc1 (centres undefined)	> 100	–	–
CSc1ccc(SC2=C(O)CC(c3ccccc3)CC2=O)cc1 (centres undefined)	> 100	–	–
Nc1ccc(SC2=C(O)CC(c3ccccc3)CC2=O)cc1 (centres undefined)	> 100	–	–
CC(=O)Nc1ccc(SC2=C(O)CC(c3ccccc3)CC2=O)cc1 (centres undefined)	> 100	–	–
O=C1CC(c2ccccc2)CC(O)=C1Sc1ccc(Cl)c(Cl)c1 (centres undefined)	> 100	–	–
COc1ccc(SC2=C(O)CC(c3ccccc3)CC2=O)cc1OC (centres undefined)	> 100	–	–
Cc1ccc(SC2=C(O)CC(c3ccccc3)CC2=O)cc1C (centres undefined)	> 100	–	–
O=C1CC(c2ccccc2)CC(O)=C1Sc1cc(Cl)cc(Cl)c1 (centres undefined)	> 100	–	–
Cc1cc(C)cc(SC2=C(O)CC(c3ccccc3)CC2=O)c1 (centres undefined)	> 100	–	–
O=C1CC(c2ccccc2)CC(O)=C1Sc1cccc(Cl)c1F (centres undefined)	> 100	–	–
O=C1CC(c2ccccc2)CC(O)=C1Sc1cccc(Cl)c1Cl (centres undefined)	63	–	–
O=C1CC(c2ccccc2)CC(O)=C1Sc1cc(Cl)ccc1Cl (centres undefined)	12	–	–

Structure (SMILES)	IC50 [1] [µM]	Kd [2] [µM]	IC50 [3] [µM]
O=C1CC(c2ccccc2)CC(O)=C1Sc1c(Cl)cccc1Cl (centres undefined)	> 100	–	–
Cc1cccc(Cl)c1SC1=C(O)CC(c2ccccc2)CC1=O (centres undefined)	> 100	–	–
O=C1CC(c2ccccc2)CC(O)=C1Sc1ccc(F)cc1Cl (centres undefined)	24	–	–
Cc1ccc(SC2=C(O)CC(c3ccccc3)CC2=O)c(C)c1 (centres undefined)	> 100	–	–
Cc1ccc(C)c(SC2=C(O)CC(c3ccccc3)CC2=O)c1 (centres undefined)	> 64	–	–
Cc1cccc(C)c1SC1=C(O)CC(c2ccccc2)CC1=O (centres undefined)	> 100	–	–
COc1ccc(OC)c(SC2=C(O)CC(c3ccccc3)CC2=O)c1 (centres undefined)	> 100	–	–
O=C1CC(c2ccccc2Cl)CC(O)=C1Sc1ccccc1Cl (centres undefined)	5.6	8.2	–
O=C1CC(c2cccc(Cl)c2)CC(O)=C1Sc1ccccc1Cl (centres undefined)	5.6	7.1	–
O=C1CC(c2ccc(Cl)cc2)CC(O)=C1Sc1ccccc1Cl (centres undefined)	18	27	–
COc1ccc(C2CC(=O)C(Sc3ccccc3Cl)=C(O)C2)cc1 (centres undefined)	19	13	6.9
O=C1CC(c2c(F)cccc2Cl)CC(O)=C1Sc1ccccc1Cl (centres undefined)	3.7	–	5.3
O=C1CC(c2c(Cl)cccc2Br)CC(O)=C1Sc1ccccc1Cl (centres undefined)	0.58	0.49	3.4
O=C1CC(c2c(F)cccc2F)CC(O)=C1Sc1ccccc1Cl (centres undefined)	7.4	–	1.3
O=C1CC(c2c(Br)cccc2Br)CC(O)=C1Sc1ccccc1Cl (centres undefined)	0.27	–	15
Cc1cccc(C)c1C1CC(=O)C(Sc2ccccc2Cl)=C(O)C1 (centres undefined)	2.3	–	1.9
O=C1CC(c2c(Cl)ccc(Br)c2Cl)CC(O)=C1Sc1ccccc1Cl (centres undefined)	0.5	0.37	> 10
N#Cc1ccccc1SC1=C(O)CC(c2ccccc2Cl)CC1=O (centres undefined)	3.1	–	6.6
N#Cc1ccccc1SC1=C(O)CC(c2cccc(Cl)c2)CC1=O (centres undefined)	6.8	–	> 10
N#Cc1ccccc1SC1=C(O)CC(c2ccc(Cl)cc2)CC1=O (centres undefined)	17	–	> 10
N#Cc1ccccc1SC1=C(O)CC(c2c(Cl)cccc2C(F)(F)F)CC1=O (centres undefined)	0.64	–	2.8
Cc1cccc(C)c1C1CC(=O)C(Sc2ccccc2C#N)=C(O)C1 (centres undefined)	2.1	–	7.8

Structure (SMILES)	IC50 [1] [µM]	Kd [2] [µM]	IC50 [3] [µM]
N#Cc1ccccc1SC1=C(O)CC(c2c(Br)cccc2Br)CC1=O (centres undefined)	0.18	–	–
Cc1cccc(CSC2=C(O)CC(c3ccccc3)CC2=O)c1 (centres undefined)	> 100	–	–
O=C1CC(c2ccccc2)CC(O)=C1SCc1ccc(F)cc1 (centres undefined)	> 100	–	–
O=C1CC(c2ccccc2)CC(O)=C1SC1CCCCC1 (centres undefined)	> 100	–	–
CC(C)C(C)SC1=C(O)CC(c2ccccc2)CC1=O (centres undefined)	> 100	–	–
CC(C)SC1=C(O)CC(c2ccccc2)CC1=O (centres undefined)	> 100	–	–
CCC(C)CSC1=C(O)CC(c2ccccc2)CC1=O (centres undefined)	> 100	–	–
O=C1CC(c2ccccc2)CC(O)=C1SCCO (centres undefined)	> 100	–	–
COC(=O)CSC1=C(O)CC(c2ccccc2)CC1=O (centres undefined)	> 100	–	–
COC(=O)CCSC1=C(O)CC(c2ccccc2)CC1=O (centres undefined)	> 100	–	–
O=C1CC(c2ccccc2)CC(O)=C1SCc1ccccc1 (centres undefined)	> 100	–	–
Cc1ccccc1CSC1=C(O)CC(c2ccccc2)CC1=O (centres undefined)	> 100	–	–
O=C1CC(c2ccccc2)CC(O)=C1SCc1cccc(C(F)(F)F)c1 (centres undefined)	> 100	–	–
Cc1ccc(CSC2=C(O)CC(c3ccccc3)CC2=O)cc1 (centres undefined)	> 100	–	–
COc1ccc(CSC2=C(O)CC(c3ccccc3)CC2=O)cc1 (centres undefined)	> 100	–	–
O=C1CC(c2ccccc2)CC(O)=C1SCc1ccc(Cl)cc1Cl (centres undefined)	> 100	–	–
O=C1CC(c2ccccc2)CC(O)=C1Sc1cccc2ccccc12 (centres undefined)	> 100	–	–
O=C1CC(c2ccccc2)CC(O)=C1Sc1ccc2ccccc2c1 (centres undefined)	> 100	–	–
O=C1CC(c2ccccc2)CC(O)=C1Sc1ccccn1 (centres undefined)	> 100	–	–
Cc1cc(C)c(SC2=C(O)CC(c3ccccc3)CC2=O)nc1C#N (centres undefined)	> 100	–	–
O=C1CC(c2ccccc2)CC(O)=C1Sc1cccs1 (centres undefined)	> 100	–	–
O=C1CC(c2ccccc2)CC(O)=C1Sc1nccs1 (centres undefined)	> 100	–	–

Structure (SMILES)	IC50 [1] [µM]	Kd [2] [µM]	IC50 [3] [µM]
Cc1csc(SC2=C(O)CC(c3ccccc3)CC2=O)n1 (centres undefined)	> 100	–	–
O=C1CC(c2ccccc2)CC(O)=C1Sc1ncc[nH]1 (centres undefined)	> 100	–	–
O=C1CC(c2ccccc2)CC(O)=C1Sc1nncs1 (centres undefined)	> 100	–	–
Cc1nnc(SC2=C(O)CC(c3ccccc3)CC2=O)s1 (centres undefined)	> 100	–	–
Nc1nnc(SC2=C(O)CC(c3ccccc3)CC2=O)s1 (centres undefined)	> 100	–	–
CSc1nnc(SC2=C(O)CC(c3ccccc3)CC2=O)s1 (centres undefined)	> 100	–	–
O=C1CC(c2ccccc2)CC(O)=C1Sc1ncccn1 (centres undefined)	> 100	–	–
Cc1ccnc(SC2=C(O)CC(c3ccccc3)CC2=O)n1 (centres undefined)	> 100	–	–
Cc1cc(C)nc(SC2=C(O)CC(c3ccccc3)CC2=O)n1 (centres undefined)	> 100	–	–
Cc1cnc(SC2=C(O)CC(c3ccccc3)CC2=O)nc1O (centres undefined)	> 100	–	–
CCOC(=O)c1cnc(SC2=C(O)CC(c3ccccc3)CC2=O)nc1N (centres undefined)	> 100	–	–
Nc1cc(N)nc(SC2=C(O)CC(c3ccccc3)CC2=O)n1 (centres undefined)	> 100	–	–
O=C1CC(c2ccccc2)CC(O)=C1Sc1nc(O)cc(C(F)(F)F)n1 (centres undefined)	> 100	–	–
O=C1CC(c2ccccc2)CC(O)=C1Sc1nc2ccccc2s1 (centres undefined)	> 100	–	–
O=C1CC(c2ccccc2)CC(O)=C1Sc1nc2ccccc2o1 (centres undefined)	> 100	–	–
O=C1CC(c2ccccc2)CC(O)=C1Sc1nc2ccc(Cl)cc2[nH]1 (centres undefined)	> 100	–	–
Cc1ccc2nc(SC3=C(O)CC(c4ccccc4)CC3=O)[nH]c2c1 (centres undefined)	> 100	–	–
Nc1ccc2nc(SC3=C(O)CC(c4ccccc4)CC3=O)[nH]c2c1 (centres undefined)	> 100	–	–
